One series relates to Oncorhynchus mykiss. The note with it: acute; duration: 96 hours; mortality.
Another series concerns Tagia sp. Conditions: acute; duration: 14 days; mortality.
For a further series, the system named is Oryctolagus sp. Conditions: subchronic; duration: 90 days; oral; hematological.
Another series concerns Daphnia magna. The note with it: acute; duration: 48 hours; mortality.
The subject of a further series is Coturnix japonica. The note with it: reproduction developmental; duration: 20 weeks.
For the next series, the system named is Rattus norvegicus. The note with it: acute; oral; mortality.
A further series concerns Anas platyrhynchos. The note with it: acute; oral; unspecified; mortality.
The test system of the next series is Colinus virginianus. The note with it: acute, oral, mortality.

Values after ≈ are worked out from the molar mass of the structure shown.

The term NOAEL denotes the highest dose or exposure tested at which no adverse effect was seen. Consider `O=c1oc2ccccc2c(O)c1C(CC(O)c1ccc(-c2ccc(Br)cc2)cc1)c1ccccc1` (centres undefined) [Bromadiolone], for which the LC50 in the series with Oncorhynchus mykiss is over 8 mg/L; with Tagia sp. it was over 4.74 mg/kg; in the series with Daphnia magna it was 2 mg/L (≈ 3.79 µM). In addition, the NOAEL in the series with Oryctolagus sp. is 0.5 mg/kg-day. In addition, in the series on Coturnix japonica, the NOEL is 0.011 mg/kg-day. The LD50 in the series with Rattus norvegicus is under 0.84 mg/kg; in the series with Anas platyrhynchos it was 1290 mg/kg; in the series with Colinus virginianus (duration: 5 days, diet), 8.3 mg/kg-day; in the series with Colinus virginianus, 138 mg/kg.

These data come from EPA's ToxValDB 9.5 (doi:10.2903/j.efsa.2010.1783).
